Laboratory results: paper PMC11375437, “Selective labelling of GBA2 in cells with fluorescent β-D-arabinofuranosyl cyclitol aziridines” (Chemical Science, 2024)

Biological target: T1, GBA2 (Homo sapiens, UniProt Q9HCG7)
T1 sequence (Q9HCG7 1-927): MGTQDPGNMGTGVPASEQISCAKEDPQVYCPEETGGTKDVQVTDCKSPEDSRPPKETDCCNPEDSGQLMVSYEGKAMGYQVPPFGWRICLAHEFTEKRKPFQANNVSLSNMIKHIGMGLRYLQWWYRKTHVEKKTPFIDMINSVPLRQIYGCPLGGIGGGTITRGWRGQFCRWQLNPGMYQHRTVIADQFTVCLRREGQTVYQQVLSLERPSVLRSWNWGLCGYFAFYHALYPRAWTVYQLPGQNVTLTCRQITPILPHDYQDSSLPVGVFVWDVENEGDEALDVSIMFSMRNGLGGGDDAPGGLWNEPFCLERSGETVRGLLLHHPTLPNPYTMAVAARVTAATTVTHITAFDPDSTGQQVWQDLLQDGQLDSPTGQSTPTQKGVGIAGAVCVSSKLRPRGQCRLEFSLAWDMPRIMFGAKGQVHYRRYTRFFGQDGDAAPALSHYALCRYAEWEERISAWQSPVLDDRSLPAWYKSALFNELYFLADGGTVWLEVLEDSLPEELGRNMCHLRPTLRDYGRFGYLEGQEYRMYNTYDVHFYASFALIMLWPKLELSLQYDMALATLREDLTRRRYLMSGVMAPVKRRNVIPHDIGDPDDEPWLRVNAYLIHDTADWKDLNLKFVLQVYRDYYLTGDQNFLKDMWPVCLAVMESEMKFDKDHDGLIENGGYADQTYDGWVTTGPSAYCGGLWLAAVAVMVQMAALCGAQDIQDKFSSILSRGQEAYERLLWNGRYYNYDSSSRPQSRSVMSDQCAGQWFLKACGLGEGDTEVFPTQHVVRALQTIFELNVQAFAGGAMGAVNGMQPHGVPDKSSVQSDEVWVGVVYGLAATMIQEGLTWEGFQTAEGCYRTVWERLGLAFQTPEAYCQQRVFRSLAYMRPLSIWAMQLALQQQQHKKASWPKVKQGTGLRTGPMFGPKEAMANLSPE
Assay: In vitro ABP labelling of HEK293T lysates (ABPP, SDS-PAGE fluorescence scanning)
Type: biochemical
Parameters: expressed in transfected cells; host or cells: HEK293T GBA1/GBA2 KO (CRISPR/Cas9), GBA2 overexpressed
Conditions: for Concentration at which GBA2 is selectively labelled: 30 min, pH 6.0
Experimental: To this end, lysates of HEK293T cells containing all β-glucosidases (endogenous GBA1 with overexpressed GBA2 and GBA3) were treated with ABPs 3, 4, 5 or 7, followed by protein separation by SDS-PAGE and fluorescence scanning of the wet gel slabs. […] In contrast, the β-D-Araf aziridine ABPs 3 and 4 selectively labelled GBA2 at a concentration of 100 nM, while Cy5 tagged ABP 5 did so at 500 nM. The GBA2 selectivity of β-D-Araf cyclitol aziridines 3, 4 and 5 was confirmed in a mixture of a lysate of overexpressed GBA2 cells spiked with 3 ng rhGBA1 (Fig. 2C and ESI Fig. S3 ^†). In this experiment, the enzyme mixture was first incubated with β-D-Araf aziridine ABPs 3, 4, or 5 for 30 minutes, after which selective GBA1 ABP 10 [32] or 11 [30] was added to label the remaining active rhGBA1 active site. […] The pH and incubation time dependence labelling of GBA2 in HEK293T cells containing all three retaining β-glucosidases by β-D-Araf ABPs was next investigated (Fig. 2D, E and ESI Fig. S4 ^†). All ABPs selectively label GBA2 at a pH range of 4.5–7.5. Using 500 nM of ABP 4, GBA2 labelling occurred within a minute, and maximal labelling was observed after 20–30 minutes. […] Therefore, only a combined inactivation rate constant (kinact) and binding constant (KI) ratio (kinact/KI) could be measured. […] Importantly, no labelling of GBA1 or GBA3 was detected under varying pH and time conditions (ESI Fig. S4-2 ^†). […]
2.6 Visualization of ABP labelling towards β-glucosidases by activity-based protein profiling (ABPP) with SDS-PAGE
β-Glucosidases were labeled with excess of fluorescent ABPs at optimum conditions at 37 °C for 30 min (if not otherwise stated). The total sample volume was 20–40 μL with 0.5–1% DMSO concentration in appropriate pH McIlvaine buffer (150 mM). To label lysates containing all β-glucosidases (GBA1, GBA2 and GBA3), ABP 7 was used at pH 6.0 in McIlvaine buffer. To label lysate only containing GBA2 (GBA1/2 KO and GBA2 OE cell lysate), ABP (3-5, or 7) was incubated at pH 5.8 in McIlvaine buffer was used. To label rhGBA1 (Imiglucerase), ABP (10 or 11) at pH 5.2 in McIlvaine buffer supplemented with 0.1% (v/v) Triton X-100 and 0.2% (w/v) sodium taurocholate were used.
After incubation with the corresponding ABPs, proteins were denatured by boiling the samples with 5× Laemmli buffer (50% (v/v) 1 M Tris-HCl, pH 6.8, 50% (v/v) 100% glycerol, 10% (w/v) DTT, 10% (w/v) SDS, 0.01% (w/v) bromophenol blue, diluted into 1x for use) for 5 min at 98 °C, and separated by electrophoresis on 10% SDS-PAGE gels run at 90 V for 1.0-1.5 h. Wet slab-gels were imaged using the Typhoon FLA 9500 scanner (GE Healthcare, Eindhoven, The Netherlands) at λEX 473 nm and λEM ≥ 510 nm for BODIPY green fluorescence; at λEX 532 nm and λEM ≥ 575 nm for the BODIPY red fluorescence ; at λEX 635 nm and λEM ≥ 665 nm for Cy5 fluorescence. Afterwards, wet slab-gels were stained by Coomassie brilliant blue (CBB) G250 or R250 for total protein staining and scanned with a ChemiDocTM MP Imaging System (Bio-Rad, Veenendaal, The Netherlands).
2.7 Determination of kinetic parameters of ABP 4
The kinetic parameters of ABP 4 for GBA2 was determined by SDS-PAGE analysis in lysates of HEK293T GBA1/2 knock out GBA2 overexpression cells in which the relative intensity of the band on wet gel slabs (compared to labelling control) was used to calculate the inactivation parameters of GBA2. Lysates were made as previous cell lysis description. […]

[1] = HEK293T lysate, endogenous GBA1, overexpressed GBA2 and GBA3

## CC1=CC(C)=[N+]2C1=C(CCCCc1cn(CCCCCCCCN3[C@@H]4[C@H](CO)[C@@H](O)[C@H](O)[C@@H]43)nn1)c1c(C)cc(C)n1[B-]2(F)F (some centres unmarked) [ABP 3]
[1]
  Concentration at which GBA2 is selectively labelled: 100 nM

## COc1ccc(C2=[N+]3C(=C(CCCCc4cn(CCCCCCCCN5[C@@H]6[C@H](CO)[C@@H](O)[C@H](O)[C@@H]65)nn4)c4ccc(-c5ccc(OC)cc5)n4[B-]3(F)F)C=C2)cc1 (some centres unmarked) [ABP 4]
500 nM ABP, HEK293T lysate containing all three β-glucosidases
  Time to maximal GBA2 labelling: 20 to 30 min
[1]
  Concentration at which GBA2 is selectively labelled: 100 nM

## CN1/C(=C/C=C/C=C/C2=[N+](CCCCCC(=O)NCc3cn(CCCCCCCCN4[C@@H]5[C@H](CO)[C@@H](O)[C@H](O)[C@@H]54)nn3)c3ccccc3C2(C)C)C(C)(C)c2ccccc21 (some centres unmarked) [ABP 5]
[1]
  Concentration at which GBA2 is selectively labelled: 500 nM

## CN1/C(=C/C=C/C=C/C2=[N+](CCCCCC(=O)NCc3cn(CCCCCCCCN4[C@@H]5[C@H](CO)[C@@H](O)[C@H](O)[C@@H](O)[C@@H]54)nn3)c3ccccc3C2(C)C)C(C)(C)c2ccccc21 (some centres unmarked) [ABP 7]
[1]
  β-Glucosidases labelled in lysate: labelled all three β-glucosidases
